The record followed here is patent US20130217664A1, “NOVEL COMPOUNDS USEFUL FOR THE TREATMENT OF DEGENERATIVE AND INFLAMMATORY DISEASES” (priority 2012, published 2013).

One experiment addresses T1, human JAK2 (Homo sapiens, UniProt O60674).
T1 construct: catalytic domain (amino acids 808-1132; catalog number PV4210); GST; purchased Invitrogen PV4210
In words: JAK2 inhibition assay (polyGT substrate / Ulight-JAK1 peptide). It counts as biochemical. The following applies: recombinant human JAK2 catalytic domain; polyGT or Ulight-JAK1 peptide assay. An outline of the steps: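 Two JAK2 formats: a ^33P-ATP polyGT assay (1 μM cold ATP, 90 min, 30° C., cpm read-out) and a Ulight-JAK1 peptide assay read by Europium-anti-phosphotyrosine fluorescence after 60 min at room temperature.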

The target in a further experiment is T2, human JAK3 (Homo sapiens, UniProt P52333).
T2 construct: catalytic domain (amino acids 781-1124; catalog number PV3855); purchased Invitrogen PV3855
In words: JAK3 inhibition assay. It counts as biochemical. The following applies: recombinant human JAK3 catalytic domain; polyGT substrate. An outline of the steps: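 Radiometric kinase assay: 0.5 ng JAK3 with 2.5 μg polyGT in Tris pH 7.5/MgCl2 buffer, 1 μM ATP plus 0.25 μCi 33P-γ-ATP, 1% DMSO, 45 min at 30 °C, stopped with phosphoric acid.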

A further experiment addresses T3, human JAK1 (Homo sapiens, UniProt P23458).
T3 construct: catalytic domain, amino acids 866-1154; catalog number PV4774; purchased Invitrogen PV4774
The experiment in a line: JAK1 inhibition assay (polyGT substrate / Ulight-JAK1 peptide). It counts as biochemical. The following applies: recombinant human JAK1 catalytic domain; polyGT or Ulight-JAK1 peptide assay. An outline of the steps: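 Signal scaled between vehicle and 10 μM staurosporine. Radiometric polyGT reactions ran 45 min at 30 °C, counted after phosphoric-acid stop. Ulight peptide reactions ran 60 min at room temperature, fluorescence read after adding Eu-PT66 detection mix with EDTA.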

In the next experiment the target is T4, human TYK2 (Homo sapiens, UniProt P29597).
T4 construct: catalytic domain (amino acids 871-1187; catalog number 08-147); purchased Carna Biosciences 08-147
T4 sequence (P29597 871-1187): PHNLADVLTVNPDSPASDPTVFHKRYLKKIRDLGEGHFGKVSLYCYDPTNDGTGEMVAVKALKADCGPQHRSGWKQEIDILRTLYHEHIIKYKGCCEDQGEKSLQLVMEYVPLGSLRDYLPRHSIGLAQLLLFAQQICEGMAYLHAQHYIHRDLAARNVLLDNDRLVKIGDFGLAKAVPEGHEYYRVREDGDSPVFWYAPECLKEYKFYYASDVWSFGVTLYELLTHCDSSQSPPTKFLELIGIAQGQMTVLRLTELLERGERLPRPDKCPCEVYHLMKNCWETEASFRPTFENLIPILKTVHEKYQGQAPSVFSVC
In words: TYK2 inhibition assay. It counts as biochemical. The following applies: recombinant human TYK2 catalytic domain, polyGT substrate. The method, boiled down:
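Radiometric kinase reaction run 90 min at 30 °C, stopped with phosphoric acid, washed and scintillation-counted.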

The test system of the next experiment is BA/F3 cell line. In words: BA/F3 viability assay. Particulars: Mus musculus, BaF3, 48 h, read-out: BA/F3 IC50.
A further experiment deals with CTLL-2 cell line. In words: CTLL2 viability assay. It counts as cell-based. The following applies: Mus musculus, IL-2 dependent CTLL2 viability, 24 h, ATP-lite. An excerpt:
The protocol describes the methods to analyse the activity of compounds on their ability to sustain the IL2-dependent viability of CTLL2.
Final DMSO concentration was 0.1%.

T1 sequence (O60674 808-1132): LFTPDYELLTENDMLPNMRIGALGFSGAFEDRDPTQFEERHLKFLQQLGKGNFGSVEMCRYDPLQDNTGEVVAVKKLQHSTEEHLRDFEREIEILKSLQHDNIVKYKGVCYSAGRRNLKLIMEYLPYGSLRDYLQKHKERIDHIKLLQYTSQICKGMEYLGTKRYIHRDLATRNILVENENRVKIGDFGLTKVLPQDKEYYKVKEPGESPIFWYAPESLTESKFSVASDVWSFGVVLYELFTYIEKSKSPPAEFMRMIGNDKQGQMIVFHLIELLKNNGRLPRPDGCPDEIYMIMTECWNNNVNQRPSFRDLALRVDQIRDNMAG
T2 sequence (P52333 781-1124): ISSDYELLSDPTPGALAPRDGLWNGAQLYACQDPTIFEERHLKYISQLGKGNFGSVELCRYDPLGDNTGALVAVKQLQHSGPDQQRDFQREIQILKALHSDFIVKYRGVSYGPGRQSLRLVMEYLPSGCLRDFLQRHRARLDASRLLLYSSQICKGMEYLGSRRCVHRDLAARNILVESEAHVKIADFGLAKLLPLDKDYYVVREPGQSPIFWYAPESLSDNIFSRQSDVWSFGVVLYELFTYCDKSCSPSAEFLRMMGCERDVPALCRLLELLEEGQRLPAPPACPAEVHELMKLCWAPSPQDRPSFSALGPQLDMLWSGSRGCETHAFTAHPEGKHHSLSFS
T3 sequence (P23458 866-1154): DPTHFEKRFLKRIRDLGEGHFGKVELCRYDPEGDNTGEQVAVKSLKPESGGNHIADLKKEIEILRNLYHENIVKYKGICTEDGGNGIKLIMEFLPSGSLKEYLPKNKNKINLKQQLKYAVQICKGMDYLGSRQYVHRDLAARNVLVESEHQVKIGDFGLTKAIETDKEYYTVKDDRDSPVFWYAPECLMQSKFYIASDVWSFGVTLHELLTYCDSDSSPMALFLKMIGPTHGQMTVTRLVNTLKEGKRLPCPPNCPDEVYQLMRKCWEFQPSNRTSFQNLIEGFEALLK

As to `CCc1cc(C2CN(S(=O)(=O)C(F)F)C2)ccc1N(C)c1cc2c(cn1)ncn2C` [Compound 354, {4-[1-(Difluoro-methanesulfonyl)-azetidin-3-yl]-2-ethyl-phenyl}-methyl-(1-methyl-1H-imidazo[4,5-c]pyridin-6-yl)-amine], the IC50 at human JAK2 lay within 0.01 to 100 nM; at human JAK3 it was 0.01 to 100 nM; on human JAK1, 0.01 to 100 nM; at human TYK2, 0.01 to 100 nM; in the experiment on BA/F3 cell line, 1000 to 5000 nM; in the experiment with CTLL-2 cell line, 501 to 1000 nM.
For the compound `CCc1cc(CC#N)ncc1N(C)c1cc2c(cn1)ncn2C` [Compound 407, {4-Ethyl-5-[methyl-(1-methyl-1H-imidazo[4,5-c]pyridin-6-yl)-amino]-pyridin-2-yl}-acetonitrile], the IC50 at human JAK2 was 0.01 to 100 nM; at human JAK3 it was 501 to 1000 nM; on human JAK1, 0.01 to 100 nM; at human TYK2, 101 to 500 nM; in the experiment on BA/F3 cell line it was above 5000 nM; with CTLL-2 cell line it was above 1000 nM.
In the case of `CCc1cc(N2CC(C(=O)NC)C2)ncc1N(C)c1cc2c(cn1)ncn2C` [Compound 400, 1-{4-Ethyl-5-[methyl-(1-methyl-1H-imidazo[4,5-c]pyridin-6-yl)-amino]-pyridin-2-yl}-azetidine-3-carboxylic acid methylamide], the IC50 at human JAK2 was 501 to 1000 nM; at human JAK3, above 1000 nM; on human JAK1 it was 101 to 500 nM; at human TYK2, 501 to 1000 nM; in the experiment with BA/F3 cell line, above 5000 nM; in the experiment with CTLL-2 cell line it was above 1000 nM.
Regarding `CN(c1cc2c(cn1)ncn2C)c1ccc(C2CN(S(=O)(=O)N(C)C)C2)cc1OC(F)F` [Compound 369], the IC50 is 101 to 500 nM on human JAK2; 101 to 500 nM on human JAK3; 0.01 to 100 nM at human JAK1; 101 to 500 nM at human TYK2; 1000 to 5000 nM in the experiment with BA/F3 cell line; above 1000 nM in the experiment on CTLL-2 cell line.
With `CCc1cc(C2(COS(=O)(=O)C(F)F)CCNC2)ccc1N(C)c1cc2c(cn1)ncn2C` (stereo not drawn) [Compound 398, difluoro-methanesulfonic acid 3-{3-ethyl-4-[methyl-(1-methyl-1H-imidazo[4,5-c]pyridin-6-yl)-amino]-phenyl}-pyrrolidin-3-ylmethyl ester], the IC50 is 0.01 to 100 nM on human JAK2; 0.01 to 100 nM on human JAK3; 0.01 to 100 nM at human JAK1; 101 to 500 nM at human TYK2; 1000 to 5000 nM in the experiment with BA/F3 cell line; above 1000 nM with CTLL-2 cell line.
In the case of `CCc1cc(C(C#N)N2CCN(S(C)(=O)=O)CC2)ccc1N(C)c1cc2c(cn1)ncn2C` (stereo not drawn) [Compound 390, {3-Ethyl-4-[methyl-(1-methyl-1H-imidazo[4,5-c]pyridin-6-yl)-amino]-phenyl}-(4-methanesulfonyl-piperazin-1-yl)-acetonitrile], the IC50 was 0.01 to 100 nM on human JAK2; 0.01 to 100 nM at human JAK3; 0.01 to 100 nM on human JAK1; 0.01 to 100 nM on human TYK2; above 5000 nM in the experiment on BA/F3 cell line; above 1000 nM with CTLL-2 cell line.
With `CCc1cc(C2(CC#N)COC2)ccc1N(C)c1cc2c(cn1)ncn2C` [Compound 389, (3-{3-Ethyl-4-[methyl-(1-methyl-1H-imidazo[4,5-c]pyridin-6-yl)-amino]-phenyl}-oxetan-3-yl)-acetonitrile], the IC50 was 0.01 to 100 nM on human JAK2; 0.01 to 100 nM at human JAK3; 0.01 to 100 nM on human JAK1; 0.01 to 100 nM on human TYK2; above 5000 nM with BA/F3 cell line; above 1000 nM in the experiment on CTLL-2 cell line.
Take `CCc1cc(N2CC(C#N)C2)ncc1N(C)c1cc2c(cn1)ncn2C` [Compound 402, 1-{4-Ethyl-5-[methyl-(1-methyl-1H-imidazo[4,5-c]pyridin-6-yl)-amino]-pyridin-2-yl}-azetidine-3-carbonitrile]: the IC50 on human JAK2 was 0.01 to 100 nM; on human JAK3, 101 to 500 nM; at human JAK1 it was 0.01 to 100 nM; on human TYK2, 0.01 to 100 nM; with BA/F3 cell line it was 1000 to 5000 nM; in the experiment with CTLL-2 cell line, above 1000 nM.
As to `CN(c1cc2c(cn1)ncn2C)c1c(F)cc(CC#N)cc1F` [Compound 405, {3,5-Difluoro-4-[methyl-(1-methyl-1H-imidazo[4,5-c]pyridin-6-yl)-amino]-phenyl}-acetonitrile], the IC50 at human JAK2 is 0.01 to 100 nM; at human JAK3, 501 to 1000 nM; at human JAK1, 0.01 to 100 nM; at human TYK2, 0.01 to 100 nM; in the experiment with BA/F3 cell line, 1000 to 5000 nM; in the experiment with CTLL-2 cell line, above 1000 nM.
Take `CCc1cc(C(C#N)N2CCOCC2)ccc1N(C)c1cc2c(cn1)ncn2C` (stereo not drawn) [Compound 393, {3-Ethyl-4-[methyl-(1-methyl-1H-imidazo[4,5-c]pyridin-6-yl)-amino]-phenyl}-morpholin-4-yl-acetonitrile]: the IC50 was 0.01 to 100 nM on human JAK2; 0.01 to 100 nM at human JAK3; 0.01 to 100 nM at human JAK1; 0.01 to 100 nM on human TYK2; above 5000 nM in the experiment with BA/F3 cell line; above 1000 nM with CTLL-2 cell line.
In the case of `CCc1cc(C2CN(S(=O)(=O)CC#N)C2)ccc1N(C)c1cc2c(cn1)ncn2C` [Compound 353, (3-{3-Ethyl-4-[methyl-(1-methyl-1H-imidazo[4,5-c]pyridin-6-yl)-amino]-phenyl}-azetidine-1-sulfonyl)-acetonitrile], the IC50 on human JAK2 lay within 0.01 to 100 nM; on human JAK3 it was 0.01 to 100 nM; on human JAK1, 0.01 to 100 nM; at human TYK2, 0.01 to 100 nM; with BA/F3 cell line it was 1000 to 5000 nM; with CTLL-2 cell line, 501 to 1000 nM.
Turning to `CCc1cc(N2CC(F)(F)C2)ncc1N(C)c1cc2c(cn1)ncn2C` [Compound 413, [6-(3,3-Difluoro-azetidin-1-yl)-4-ethyl-pyridin-3-yl]-methyl-(1-methyl-1H-imidazo[4,5-c]pyridin-6-yl)-amine], the IC50 on human JAK2 was 0.01 to 100 nM; on human JAK3, 101 to 500 nM; on human JAK1, 0.01 to 100 nM; at human TYK2, 0.01 to 100 nM; in the experiment on BA/F3 cell line it was 1000 to 5000 nM; in the experiment with CTLL-2 cell line it was above 1000 nM.
For the compound `CCc1cc(C2CN(C(=O)C(F)F)C2)ccc1N(C)c1cc2c(cn1)ncn2C` [Compound 346, 1-(3-{3-Ethyl-4-[methyl-(1-methyl-1H-imidazo[4,5-c]pyridin-6-yl)-amino]-phenyl)-azetidin-1-yl)-2,2-difluoro-ethanone], the IC50 is 0.01 to 100 nM at human JAK2; 101 to 500 nM at human JAK3; 0.01 to 100 nM at human JAK1; 0.01 to 100 nM on human TYK2; above 5000 nM in the experiment on BA/F3 cell line; above 1000 nM with CTLL-2 cell line.
Take `CN(c1cc2c(cn1)ncn2C)c1ccc(CN(C)S(C)(=O)=O)cc1F` [Compound 358, N-{3-Fluoro-4-[methyl-(1-methyl-1H-imidazo[4,5-c]pyridin-6-yl)-amino]-benzyl}-N-methyl-methanesulfonamide]: the IC50 on human JAK2 was 0.01 to 100 nM; on human JAK3, 101 to 500 nM; on human JAK1 it was 0.01 to 100 nM; on human TYK2, 101 to 500 nM; with BA/F3 cell line, above 5000 nM; in the experiment on CTLL-2 cell line, above 1000 nM.
Take `CN(c1cc2c(cn1)ncn2C)c1ccc(C2CN(CC(F)(F)F)C2)cc1OC(F)F` [Compound 364, {2-Difluoromethoxy-4-[1-(2,2,2-trifluoro-ethyl)-azetidin-3-yl]-phenyl}-methyl-(1-methyl-1H-imidazo[4,5-c]pyridin-6-yl)-amine]: the IC50 was 101 to 500 nM on human JAK2; 101 to 500 nM at human JAK3; 0.01 to 100 nM at human JAK1; above 1000 nM at human TYK2; above 5000 nM with BA/F3 cell line; above 1000 nM in the experiment on CTLL-2 cell line.
Turning to `CCc1cc(CN(C)S(C)(=O)=O)cc(F)c1N(C)c1cc2c(cn1)ncn2C` [Compound 356, N-{3-Ethyl-5-fluoro-4-[methyl-(1-methyl-M-imidazo[4,5-c]pyridin-6-yl)-amino]-benzyl}-N-methyl-methanesulfonamide], the IC50 lay in the range of 0.01 to 100 nM at human JAK2; 0.01 to 100 nM on human JAK3; 0.01 to 100 nM at human JAK1; 0.01 to 100 nM on human TYK2; 1000 to 5000 nM in the experiment with BA/F3 cell line; 501 to 1000 nM with CTLL-2 cell line.
